# Laboratory results taken from publication PMC4718913, “Characterization of a novel oxidase from Thelonectria discophora SANK 18292 involved in nectrisine biosynthesis” (AMB Express, 2016).
# How the values were obtained:
# NecC [1] = target: T1, NecC (Thelonectria discophora, UniProt A0A0S3Q283); assay: LC-MS of nectrisine formed (NaBH4 reduction, NBD-F label); format: biochemical; design: full-length cDNA in pET21b, C-terminal His tag, E. coli BL21 (DE3), Ni column; about 62 kDa; details: 15 °C, 12.5 h
# T1 sequence (A0A0S3Q283 1-558): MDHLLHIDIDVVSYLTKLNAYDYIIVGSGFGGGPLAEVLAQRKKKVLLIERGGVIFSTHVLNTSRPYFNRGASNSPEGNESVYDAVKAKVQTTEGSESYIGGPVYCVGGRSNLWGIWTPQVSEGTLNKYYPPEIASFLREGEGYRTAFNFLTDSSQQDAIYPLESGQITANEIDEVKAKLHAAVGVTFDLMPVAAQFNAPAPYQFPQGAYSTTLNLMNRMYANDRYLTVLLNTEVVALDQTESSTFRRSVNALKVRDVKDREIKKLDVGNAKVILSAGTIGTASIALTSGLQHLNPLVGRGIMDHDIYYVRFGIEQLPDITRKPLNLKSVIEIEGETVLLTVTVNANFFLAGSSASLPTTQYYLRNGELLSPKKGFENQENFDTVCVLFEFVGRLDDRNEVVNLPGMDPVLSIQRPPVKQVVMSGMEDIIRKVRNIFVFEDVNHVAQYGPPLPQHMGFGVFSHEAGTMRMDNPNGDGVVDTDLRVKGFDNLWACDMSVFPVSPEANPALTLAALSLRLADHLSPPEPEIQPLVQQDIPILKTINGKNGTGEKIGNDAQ
# NecC [2] = target: T1, NecC; assay: H2O2 production, ABTS/peroxidase coupled, absorbance at […] nm; format: biochemical; design: native, purified from mycelium (ammonium sulfate, DEAE); FAD-like flavin; homo-oligomers about 8 mer to 16 mer; details: pH 7.0, 30 °C
Structure (SMILES),"LC-MS of nectrisine formed (NaBH4 reduction, NBD-F label) (NecC [1])","H2O2 production, ABTS/peroxidase coupled, absorbance at 420 nm (NecC [2]; 1 mM substrate, O2 as acceptor)","H2O2 production, ABTS/peroxidase coupled, absorbance at 420 nm (NecC [2]; xylitol in place of 4-amino-4-deoxyarabinitol)"
"N[C@H](CO)[C@@H](O)[C@H](O)CO [compound 2, 4-amino-4-deoxyarabinitol]",the recombinant NecC had 4-amino-4-deoxyarabinitol oxidase activity,4-amino-4-deoxyarabinitol was the preferred substrate,–
OC[C@@H](O)[C@H](O)[C@@H](O)CO [xylitol],–,–,NecC also exhibited activity against some sugar alcohols
